Read-outs that look alike come from different tables or passages of the source. Where a SMILES comes first, the peptide text is derived from it.
What was measured:
[1] = target: Wnt-responsive promoter (TCF/LEF); test: Wnt-dependent luciferase reporter assay; assay type: cell-based, murine
Experimental: The luciferase reporter assay is commonly used as a tool to study gene expression at the transcriptional level. Peptides from libraries described herein were characterized for ability to suppress transcription in cells with luciferase expression controlled by a Wnt-responsive promoter. Peptides were added to cells transfected with luciferase gene downstream of a Wnt-responsive promoter. Cells were stimulated with Wnt3a protein and incubated with peptides from libraries described herein. Luminescence was recorded to determine the peptides with the highest β-catenin-inhibiting activity. EC50 values were calculated based on the inhibition of luminescence and expressed as concentration (uM) in Table 5.
Peptides were assessed for their ability to inhibit Wnt signaling. Murine 3T3 fibroblasts that express luciferase under a Wnt-responsive promoter (TCF/LEF) (Enzo Life Sciences, Farmingdale, NY) were stimulated with Wnt3a in the presence of increasing concentrations of peptide inhibitor (Hit 1: SEQ ID NO:217, Hit 2: SEQ ID NO:224, Hit 3: SEQ ID NO:228, Hit 4: SEQ ID NO:227, Hit 5: SEQ ID NO:220, Hit 6: SEQ ID NO:168. Hit 7: SEQ ID NO:226) or with vehicle control (FIG. 2A).

β-catenin = target: T1, β-catenin (Homo sapiens, UniProt P35222); test: KD50 measurement using competitive fluorescence polarization (FP) with labelled TCF4; assay type: binding; conditions: fluorescence polarization, β-catenin
T1 sequence (P35222 1-781): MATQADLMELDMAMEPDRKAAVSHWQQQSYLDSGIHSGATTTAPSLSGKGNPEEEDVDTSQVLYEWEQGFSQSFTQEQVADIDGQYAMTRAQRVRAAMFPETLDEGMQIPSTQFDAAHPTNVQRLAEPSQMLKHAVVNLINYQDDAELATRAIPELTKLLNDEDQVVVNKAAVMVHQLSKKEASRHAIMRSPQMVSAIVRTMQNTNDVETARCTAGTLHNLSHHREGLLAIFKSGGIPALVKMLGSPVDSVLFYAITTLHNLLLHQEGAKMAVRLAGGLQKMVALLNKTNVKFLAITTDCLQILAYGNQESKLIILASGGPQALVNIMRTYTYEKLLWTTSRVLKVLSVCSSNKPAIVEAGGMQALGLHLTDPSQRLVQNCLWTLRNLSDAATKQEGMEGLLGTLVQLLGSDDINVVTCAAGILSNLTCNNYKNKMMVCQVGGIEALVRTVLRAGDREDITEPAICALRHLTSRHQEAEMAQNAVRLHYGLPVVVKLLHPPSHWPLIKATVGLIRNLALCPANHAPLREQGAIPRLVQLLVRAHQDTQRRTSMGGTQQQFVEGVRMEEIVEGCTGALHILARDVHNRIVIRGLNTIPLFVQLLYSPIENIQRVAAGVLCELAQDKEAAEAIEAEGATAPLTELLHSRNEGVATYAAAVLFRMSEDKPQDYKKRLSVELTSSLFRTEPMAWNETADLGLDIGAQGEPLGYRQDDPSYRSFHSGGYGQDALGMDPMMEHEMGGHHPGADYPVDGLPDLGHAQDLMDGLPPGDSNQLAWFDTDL
Summary of the method: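 5 nM labelled TCF4 was combined with 100 nM β-catenin at room temperature, then inhibitor was titrated in serial dilutions from 10 nM to 30 uM. Polarization was read at excitation 470 nm, emission 520 nm; displacement lowers the signal. Three independent experiments.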

Compound	EC50 [1] [µM]	β-Cat FP Hill slope (β-catenin)	Kd (β-catenin; read-out: β-Cat FP KD) [µM]	Kd (β-catenin; β-Cat FP KD) [µM]
CC[C@H](C)[C@@H]1NC(=O)[C@@H](NC(=O)[C@H](CCC(N)=O)NC(=O)[C@H](C)N(C)C(C)=O)CCCCNC(=O)CC[C@@H](C(=O)N[C@@H](Cc2c[nH]cn2)C(=O)N[C@H](C(=O)N[C@@H](CCC(N)=O)C(=O)N[C@@H](CCCNC(=N)N)C(=O)N[C@H](C(=O)N[C@@H](Cc2c[nH]c3ccccc23)C(N)=O)C(C)C)C2CCCCC2)NC(=O)[C@H](CC(=O)O)NC(=O)[C@H](CC(C)C)NC1=O [compound 445] (HELM PEPTIDE1{[ac].[meA].Q.K.I.L.D.E.H.[O=C([C@@H](N[*:1])C1CCCCC1)[*:2]].Q.R.V.W.[am]}$PEPTIDE1,PEPTIDE1,4:R3-8:R3$$$V2.0)	22.5 to 30	0.7	< 0.4	
CC[C@H](C)[C@@H]1NC(=O)[C@@H](NC(=O)[C@H](CCC(N)=O)NC(=O)[C@H](C)N(C)C(C)=O)CCCCNC(=O)CC[C@@H](C(=O)N[C@@H](Cc2c[nH]cn2)C(=O)N[C@H](C(=O)N[C@@H](CCC(N)=O)C(=O)N[C@@H](CCCNC(=N)N)C(=O)N[C@H](C(=O)N[C@@H](Cc2c[nH]c3ccccc23)C(=O)N[C@@H](CCCNC(=N)N)C(N)=O)C(C)C)C2CCCCC2)NC(=O)[C@H](CC(=O)O)NC(=O)[C@H](CC(C)C)NC1=O [compound 448] (HELM PEPTIDE1{[ac].[meA].Q.K.I.L.D.E.H.[O=C([C@@H](N[*:1])C1CCCCC1)[*:2]].Q.R.V.W.R.[am]}$PEPTIDE1,PEPTIDE1,4:R3-8:R3$$$V2.0)	> 30	0.7	< 0.4	
CC[C@H](C)[C@@H]1NC(=O)[C@@H](NC(=O)[C@H](CCC(N)=O)NC(=O)[C@H](C)N(C)C(=O)[C@H](Cc2c[nH]c3ccccc23)NC(C)=O)CCCCNC(=O)C[C@@H](C(=O)N[C@@H](Cc2c[nH]cn2)C(=O)N[C@H](C(=O)N[C@@H](CCC(N)=O)C(=O)N[C@@H](C)C(=O)N[C@H](C(N)=O)C(C)C)C2CCCCC2)NC(=O)[C@H](CC(N)=O)NC(=O)[C@H](CC(C)C)NC1=O [compound 452] (HELM PEPTIDE1{[ac].W.[meA].Q.K.I.L.N.D.H.[O=C([C@@H](N[*:1])C1CCCCC1)[*:2]].Q.A.V.[am]}$PEPTIDE1,PEPTIDE1,5:R3-9:R3$$$V2.0)	15 to 22.5	0.7		0.4 to 1
CCCCCCCCCCCC(=O)N[C@@H](Cc1c[nH]c2ccccc12)C(=O)N(C)[C@@H](C)C(=O)N[C@@H](CCC(N)=O)C(=O)N[C@H]1CCCCNC(=O)CC[C@@H](C(=O)N[C@@H](Cc2c[nH]cn2)C(=O)N[C@H](C(=O)N[C@H]2CCC(=O)NCCCC[C@@H](C(N)=O)NC(=O)[C@H](Cc3c[nH]c4ccccc34)NC(=O)[C@H](C(C)C)NC(=O)[C@H](CC(=O)O)NC2=O)C2CCCCC2)NC(=O)[C@H](CC(=O)O)NC(=O)[C@H](CC(C)C)NC(=O)[C@H]([C@@H](C)CC)NC1=O [compound 465] (HELM PEPTIDE1{[CCCCCCCCCCCC(=O)[*:2]].W.[meA].Q.K.I.L.D.E.H.[O=C([C@@H](N[*:1])C1CCCCC1)[*:2]].E.D.V.W.K.[am]}$PEPTIDE1,PEPTIDE1,5:R3-9:R3|PEPTIDE1,PEPTIDE1,12:R3-16:R3$$$V2.0; bridges inferred)	< 7.5	0.7		

Further lines, with some results ahead:

EC50 [1] [µM]	β-Cat FP Hill slope (β-catenin)	Kd (β-catenin; read-out: β-Cat FP KD) [µM]	Compound	Kd (β-catenin; β-Cat FP KD) [µM]
22.5 to 30	0.7	< 0.4	CC[C@H](C)[C@@H]1NC(=O)[C@@H](NC(=O)[C@H](CCC(N)=O)NC(C)=O)CCCCNC(=O)CC[C@@H](C(=O)N[C@@H](Cc2c[nH]cn2)C(=O)N[C@H](C(=O)N[C@@H](CCC(N)=O)C(=O)N[C@@H](CCCNC(=N)N)C(=O)N[C@H](C(=O)N[C@@H](Cc2c[nH]c3ccccc23)C(=O)NCC(N)=O)C(C)C)C2CCCCC2)NC(=O)[C@H](CC(=O)O)NC(=O)[C@H](CC(C)C)NC1=O [compound 440] (HELM PEPTIDE1{[ac].Q.K.I.L.D.E.H.[O=C([C@@H](N[*:1])C1CCCCC1)[*:2]].Q.R.V.W.G.[am]}$PEPTIDE1,PEPTIDE1,3:R3-7:R3$$$V2.0)	
> 30	1.86	< 0.4	CC[C@H](C)[C@@H]1NC(=O)[C@@H](NC(=O)[C@H](CCC(N)=O)NC(=O)[C@H](C)NC(=O)[C@H](Cc2c[nH]c3ccccc23)NC(C)=O)CCCCNC(=O)CC[C@@H](C(=O)N[C@@H](Cc2c[nH]cn2)C(=O)N[C@H](C(=O)N[C@@H](CCC(N)=O)C(=O)N[C@@H](CCCNC(=N)N)C(=O)N[C@H](C(=O)N[C@@H](Cc2c[nH]c3ccccc23)C(=O)NCC(N)=O)C(C)C)C2CCCCC2)NC(=O)[C@H](CC(=O)O)NC(=O)[C@H](CC(C)C)NC1=O [compound 441] (HELM PEPTIDE1{[ac].W.A.Q.K.I.L.D.E.H.[O=C([C@@H](N[*:1])C1CCCCC1)[*:2]].Q.R.V.W.G.[am]}$PEPTIDE1,PEPTIDE1,5:R3-9:R3$$$V2.0)	
< 7.5	1.51	< 0.4	CC[C@H](C)[C@@H]1NC(=O)[C@@H](NC(=O)[C@H](CCC(N)=O)NC(=O)[C@@H]2CCCCN2C(=O)[C@H](Cc2c[nH]c3ccccc23)NC(C)=O)CCCCNC(=O)CC[C@@H](C(=O)N[C@@H](Cc2c[nH]cn2)C(=O)N[C@H](C(=O)N[C@@H](CCC(N)=O)C(=O)N[C@@H](CCCNC(=N)N)C(=O)N[C@H](C(=O)N[C@@H](Cc2c[nH]c3ccccc23)C(=O)NCC(N)=O)C(C)C)C2CCCCC2)NC(=O)[C@H](CC(=O)O)NC(=O)[C@H](CC(C)C)NC1=O [compound 442] (HELM PEPTIDE1{[ac].W.[O=C([C@@H]1CCCCN1[*:1])[*:2]].Q.K.I.L.D.E.H.[O=C([C@@H](N[*:1])C1CCCCC1)[*:2]].Q.R.V.W.G.[am]}$PEPTIDE1,PEPTIDE1,5:R3-9:R3$$$V2.0)	
7.5 to 15	0.86	< 0.4	CC[C@H](C)[C@@H]1NC(=O)[C@@H](NC(=O)[C@H](CCC(N)=O)NC(=O)C(C)(C)NC(=O)[C@H](Cc2c[nH]c3ccccc23)NC(C)=O)CCCCNC(=O)CC[C@@H](C(=O)N[C@@H](Cc2c[nH]cn2)C(=O)N[C@H](C(=O)N[C@@H](CCC(N)=O)C(=O)N[C@@H](CCCNC(=N)N)C(=O)N[C@H](C(=O)N[C@@H](Cc2c[nH]c3ccccc23)C(=O)NCC(N)=O)C(C)C)C2CCCCC2)NC(=O)[C@H](CC(=O)O)NC(=O)[C@H](CC(C)C)NC1=O [compound 443] (HELM PEPTIDE1{[ac].W.[Aib].Q.K.I.L.D.E.H.[O=C([C@@H](N[*:1])C1CCCCC1)[*:2]].Q.R.V.W.G.[am]}$PEPTIDE1,PEPTIDE1,5:R3-9:R3$$$V2.0)	
> 30	0.89	< 0.4	CC[C@H](C)[C@@H]1NC(=O)[C@@H](NC(=O)[C@H](CCC(N)=O)NC(=O)[C@H](C)N(C)C(=O)[C@H](Cc2c[nH]c3ccccc23)NC(C)=O)CCCCNC(=O)CC[C@@H](C(=O)N[C@@H](Cc2c[nH]cn2)C(=O)N[C@H](C(=O)N[C@@H](CCC(N)=O)C(=O)N[C@@H](CCCNC(=N)N)C(=O)N[C@H](C(=O)N[C@@H](Cc2c[nH]c3ccccc23)C(=O)N[C@@H](CCCNC(=N)N)C(N)=O)C(C)C)C2CCCCC2)NC(=O)[C@H](CC(=O)O)NC(=O)[C@H](CC(C)C)NC1=O [compound 449] (HELM PEPTIDE1{[ac].W.[meA].Q.K.I.L.D.E.H.[O=C([C@@H](N[*:1])C1CCCCC1)[*:2]].Q.R.V.W.R.[am]}$PEPTIDE1,PEPTIDE1,5:R3-9:R3$$$V2.0)	
7.5 to 15	0.89	< 0.4	CC[C@H](C)[C@H](NC(=O)[C@H](CO)NC(=O)[C@H](CCC(N)=O)NC(=O)[C@@H]1CCCN1C(=O)[C@H](Cc1c[nH]c2ccccc12)NC(C)=O)C(=O)N[C@@H](CC(C)C)C(=O)N[C@@H](CC(=O)O)C(=O)N[C@H]1CCC(=O)NCCCC[C@@H](C(=O)N[C@H](C(=O)N[C@@H](Cc2c[nH]c3ccccc23)C(=O)NCC(N)=O)C(C)C)NC(=O)[C@H](CCC(N)=O)NC(=O)[C@H](C2CCCCC2)NC(=O)[C@H](Cc2c[nH]cn2)NC1=O [compound 472] (HELM PEPTIDE1{[ac].W.P.Q.S.I.L.D.E.H.[O=C([C@@H](N[*:1])C1CCCCC1)[*:2]].Q.K.V.W.G.[am]}$PEPTIDE1,PEPTIDE1,9:R3-13:R3$$$V2.0)	
